In one data set the test system is CEM cells. Put plainly: Percentage viability in CEM cells (3-day exposure). Type of data set: cell-based.
The subject of data set [1] is T1, whole cell HDAC activity (CEM cells).
T1 construct: other: intact CEM cells
Put plainly: Whole cell HDAC activity assay in intact CEM cells (MAL substrate). Type of data set: cell-based. On the procedure:
The fluorescent substrate MAL has been used in a novel assay established and validated by Dr. Joel for the determination of HDAC activity in intact cells.
1×10^6 CEM cells in 1 ml medium were exposed to inhibitors at 6 concentrations for 60 minutes, after which MAL at 20 μg/ml (5 μg/mL final concentration) was added for a further 30 minutes, all at 37° C. Cells were then rapidly washed at 4° C., lysed by sonication, the reaction stopped with acetonitrile, and MAL and the deacetylated product determined in the supernatant by rapid HPLC.
Chromatographic separation of MAL and ML was carried out using a 15 cm Apex ODS 5 μM column with acetonitrile/distilled water (40:60), 2% trifluoracetic acid (TFA) v/v mobile phase at a flow rate of 1.2 ml/minute.
The activity of each inhibitor was assessed at a minimum of 5 non-zero concentrations. MAL and ML peak heights were used to derive the percentage MAL in the mixture as the ration of MAL: MAL+ML.

Data set [2] has as its system whole cell HDAC activity (CEM cells). Put plainly: Whole cell HDAC assay modified for 24-hour incubation with CEM cells as indicator of in vitro compound stability.
Another data set addresses rat liver HDAC. Put plainly: HDAC activity assay with partially purified rat liver HDAC enzyme (MAL substrate). Type of data set: biochemical. On the procedure:
The activity of the compounds as inhibitors of histone deacetylase was investigated using a modified assay based on a rapid in vitro HDAC activity assay (based on the deacetylation of an Ω-acetylated lysine (MAL)) and described by Hoffman et al. in Nucl. Acids. […] The reaction was terminated with 100 μl acetonitrile, and MAL and the deacetylated produce (ML) were determined in the supernatant. […] MAL and ML peak heights were used to derive the percentage MAL in the mixture as the ration of MAL: MAL+ML.

The mark [3] stands for this setting: Homo sapiens, CCRF-CEM, 72 h, Table 2, CEM cells, 3-day exposure, read-out: % Viability (IC50).
Setting [4] is: CEM cells (Table 2), read-out: HDAC inhibitory activity CEM cells (IC50).
Setting [5] is: intact CEM cells, inhibitor 60 minutes then MAL 30 minutes, read-out: HDAC inhibitory activity (IC50) μM CEM cells.
Setting [6] is: rat liver HDAC preparation, 60 minutes at 37° C., read-out: HDAC inhibitory activity (IC50) μM Liver preparation.
Where [7] appears, read: intact CEM cells, read-out: HDAC activity IC50, CEM cells.
[8] abbreviates: rat liver HDAC, read-out: HDAC activity IC50, rat liver HDAC.

Like-named read-outs stand apart in the source and are kept apart here.

As to `O=C(/C=C/C=C/C[S+]([O-])c1ccc(Cl)cc1)NO` (stereo not drawn) [UCL 2002, 6-(4-Chlorobenzenesulfinyl)-hexa-2,4-dienoic acid hydroxyamide], the IC50 turned out to be 1.57 µM in the data set on CEM cells (setting [3]); 1.58 µM in data set [1] (setting [4]); 1.2 ± 0.4 µM in data set [1] (setting [5]); 0.31 µM on rat liver HDAC (purified liver HDAC (Table 2), read-out: HDAC inhibitory activity Purified liver (IC50)); 0.4 ± 0.1 µM on rat liver HDAC (setting [6]). The “decrease in HDAC inhibitory activity between 1 and 24 hours incubation” value in data set [2] is reported as “no decrease in activity”.

With `CC=CC=CC(=O)NO` [hexa-2,4-dienic acid hydroxamide, reference compound], the IC50 in data set [1] (setting [7]) was 47 ± 17 µM; on rat liver HDAC (setting [8]) it was 0.8 ± 0.7 µM.

As to “sodium phenyl-butyrohydroxamic acid [NaPBHA, reference compound]”, the IC50 in the data set with CEM cells (CEM cells, 3-day exposure, read-out: IC50 values for percentage viability) came out at 138 ± 28 µM; in data set [1] (setting [7]), 158 ± 99 µM; at rat liver HDAC (setting [8]), 6.2 ± 2 µM.

Turning to `O=C(/C=C/C=C/CS(=O)(=O)c1ccccc1)NO` [CM4, 6-benzenesulfonyl-hexa-2,4-dienoic acid hydroxamide], the IC50 in data set [1] (setting [5]) is 3.3 ± 1.3 µM; at rat liver HDAC (setting [6]) it was 0.8 ± 0.3 µM.

On to `O=C(CCCCC[S+]([O-])c1ccc(Cl)cc1)NO` (stereo not drawn) [UCL 2007, 6-(4-Chloro-benzenesulfinyl)-hexanoic acid hydroxyamide], for which the IC50 is 2.56 µM in the data set on CEM cells (setting [3]) and 1.28 µM in data set [1] (setting [4]). In addition, the “decrease in HDAC inhibitory activity between 1 and 24 hours incubation” value in data set [2] is reported as “no decrease in activity”.

Consider `CC(/C=C/C(=O)NO)=C\[C@@H](C)C(=O)c1ccc(N(C)C)cc1` [trichostatin, Trichostatin A, reference compound], for which, in the data set with CEM cells (Homo sapiens, CCRF-CEM, 72 h, read-out: % viability (IC50) μM), the IC50 was 0.082 ± 0.011 µM. The “decrease in HDAC inhibitory activity between 1 and 24 hours incubation” value in data set [2] is “greater than 90%”.

For the origin of these results see patent publication US7683185B2, “Histone deacetylase inhibitors” (Queen Mary & Westfield College, priority 2002, dated 2010).
